Key:
[1] = test system: A2780 cells; assay: MTT reduction assay on A2780 cells; format: cell-based; conditions: maximal inhibition; 4 h treatment; maximum concentration 100 µM
Experimental: For MTT assays, 4 × 10^3 A2780 cells were plated into 96-well plates, and for SRB assays, 1.5 × 10^3 A2780 cells were plated into 96-well plates. Cells were treated with the compounds in the concentrations indicated for either 4 h for an MTT assay or for 48 h for an SRB assay. Data are represented as average ± SD, from four biological replicates, with the exception of the MTT dataset of Ir-2b and the SRB datasets of 2b, Ru/Ir-2b, and Ir-3a, which were derived from three biological replicates. Individual assays were performed in duplicate. Values were normalized for vehicle-treated cells, and the absorbance for vehicle-treated cells equals 1. Data are represented as fold change compared to vehicle-treated controls. Normality was assessed using the D'Agostino-Pearson test. Statistical significance was assessed using a two-way ANOVA test followed by Tukey's post hoc test. For better visibility, normality, transformations, statistical tests, and p values are presented in an MS Excel sheet at https://figshare.com/s/3a0aa60b66f3f746f41e. Color code: black-free ligand (2a,b or 3a), khaki-ruthenium complex (Ru-2a,b or Ru-3a), green-iridium complex (Ir-2a,b or Ir-3a).  FIGURE 5 The ruthenium, osmium, and iridium complexes of ligands 4a, 4b, and 5a decrease MTT reduction. For MTT assays, 4 × 10^3 A2780 cells, 3 × 10^3 ID8 cells, or 6 × 10^3 human primary fibroblasts were plated into 96-well plates. Cells were treated with the compounds in the concentrations indicated for 4 h. Data are represented as average ± SD, from four biological replicates on A2780, and from three biological replicates on ID8 and human primary fibroblasts. For the datasets of 5a and Os-5a on human primary fibroblasts, the data represent four biological replicates. Individual assays were performed in duplicate. Values were normalized for vehicle-treated cells, and the absorbance for vehicle-treated cells equals 1. Normality was assessed using the D'Agostino-Pearson test. Statistical significance was assessed using a two-way ANOVA test followed by Tukey's post hoc test. For better visibility, normality, transformations, statistical tests, and p values are presented in an MS Excel sheet at https://figshare.com/s/3a0aa60b66f3f746f41e. Color code: black-free ligand (4a,b or 5a), khaki-ruthenium complex (Ru-4a,b), green-iridium complex (Ir-4a,b), blue-osmium complex (Os-4a,b or Os-5a), and red-rhodium complex (Rh-4a,b). An MTT reduction assay measures the activity of mitochondrial complex I and can be used to detect toxicity ([[…] et al., 2016]). The assay was performed in a manner similar to that described by [[…] et al. (2023b)]. Briefly, cells were plated into 96-well plates the day before the assay. Cells were treated with the compounds for 4 h; then, MTT was added to a 0.5 mg/mL final concentration, and cells were incubated at 37°C in a cell incubator for 40-60 min, as a function of the cell line being assessed. The culture medium was removed, the reduced MTT dye was dissolved in dimethylsulfoxide, and plates were measured in a plate photometer (Thermo Scientific Multiscan GO spectrophotometer, Waltham, MA, United States) at 540 nm. Certain wells were designated to contain vehicle-treated cells on each plate. In calculations, the readings for these wells were considered to 1, and all readings were expressed relative to these values. Statistical analysis was performed using version 8.0.1 of GraphPad Prism. Values were tested for normal distribution using the D'Agostino-Pearson or Shapiro-Wilk normality tests. When necessary, values were log-normalized or normalized using the Box-Cox or two-step normalization method ([Box and Cox, 1964]), as indicated in the MS Excel file listing the values at https://figshare.com/s/3a0aa60b66f3f746f41e. The following statistical test, post hoc test, and the level of significance are indicated in the MS Excel file listing the values at https://figshare.com/s/3a0aa60b66f3f746f41e. […]

[2] = test system: A2780 cells; assay: SRB assay on A2780 cells; format: cell-based; conditions: maximal inhibition; 48 h treatment; maximum concentration 100 µM
Experimental: For MTT assays, 4 × 10^3 A2780 cells were plated into 96-well plates, and for SRB assays, 1.5 × 10^3 A2780 cells were plated into 96-well plates. Cells were treated with the compounds in the concentrations indicated for either 4 h for an MTT assay or for 48 h for an SRB assay. Data are represented as average ± SD, from four biological replicates, with the exception of the MTT dataset of Ir-2b and the SRB datasets of 2b, Ru/Ir-2b, and Ir-3a, which were derived from three biological replicates. Individual assays were performed in duplicate. Values were normalized for vehicle-treated cells, and the absorbance for vehicle-treated cells equals 1. Data are represented as fold change compared to vehicle-treated controls. Normality was assessed using the D’Agostino–Pearson test. Statistical significance was assessed using a two-way ANOVA test followed by Tukey’s post hoc test. For better visibility, normality, transformations, statistical tests, and p values are presented in an MS Excel sheet at https://figshare.com/s/3a0aa60b66f3f746f41e. Color code: black—free ligand (2a,b or 3a), khaki—ruthenium complex (Ru-2a,b or Ru-3a), green—iridium complex (Ir-2a,b or Ir-3a).  FIGURE 7 The ruthenium, osmium, and iridium complexes of ligands 4a, 4b, and 5a are cytostatic on ovarian cancer models with a good therapeutic index. For SRB assays, 1.5 × 10^3 A2780 cells, 1.5 × 10^3 ID8 cells, or 4 × 10^3 primary fibroblasts were plated into 96-well plates. Cells were treated with the compounds in the concentrations indicated for 48 h. Data are represented as average ± SD, from four biological replicates on A2780 and human primary fibroblasts, except in the case of Os complexes, where experiments were performed in three biological replicates. ID8 cells were assessed in three biological replicates. Individual assays were performed in duplicate. Values were normalized for vehicle-treated cells, and the absorbance for vehicle-treated cells equals 1. Normality was assessed using the D’Agostino–Pearson test. Statistical significance was assessed using a two-way ANOVA test followed by Tukey’s post hoc test. For better visibility, normality, transformations, statistical tests, and p values are presented in an MS Excel sheet at https://figshare.com/s/3a0aa60b66f3f746f41e. Color code: black—free ligand (4a,b or 5a), khaki—ruthenium complex (Ru-4a,b), blue—osmium complex (Os-4a,b or Os-5a), green—iridium complex (Ir-4a,b), and red—rhodium complex (Rh-4a,b). An SRB assay measures protein content of cells in correlation with the cell number in an assay well and can therefore be used to assess cell proliferation or long-term cytostasis ([Skehan et al., 1990]). Cells were seeded into 96-well plates the day before the treatment for the assay. Cells were treated with the various compounds for 48 h. Then, the medium was removed, and cells were fixed with 10% trichloroacetic acid. Fixed cells were washed in distilled water three times, followed by staining with SRB (0.4 m/V% dissolved in 1% acetic acid) for 10 min. Stained cells were washed in 1% acetic acid five times; the acetic acid was removed, and the cells were left to dry. Protein-bound SRB was released by adding 100 µL of 10 mM Tris base. Plates were measured in a plate photometer (Thermo Scientific Multiscan GO spectrophotometer, Waltham, MA, United States) at 540 nm. Certain wells were designated to contain vehicle-treated cells on each plate. […] Statistical analysis was performed using version 8.0.1 of GraphPad Prism. Values were tested for normal distribution using the D’Agostino–Pearson or Shapiro–Wilk normality tests. When necessary, values were log-normalized or normalized using the Box–Cox or two-step normalization method ([Box and Cox, 1964]), as indicated in the MS Excel file listing the values at https://figshare.com/s/3a0aa60b66f3f746f41e. […]

[3] = pH-potentiometric titration, protonation constants (pKa) of the ligands; format: physicochemical; conditions: 0.20 M KCl, 25.0°C; N-heterocyclic ring of the ligand
Experimental: In order to obtain information on the acidbase character of the ligands and on the stoichiometry and stability of the complexes present in aqueous medium, potentiometric titrations were carried out in selected systems. Based on the results, both 3a and 3b, having good enough solubility in water, are capable of releasing one hydrogen ion from the fully protonated forms in the measurable pH range (see Figure 3, “pK”). The calculated pK a values appear in Table 4; these values belong to the N-heterocyclic ring of the ligands. […]. For comparison, the previously prepared β-anomeric pair of 3a, compound 3a-β ([Kacsir et al., 2021]) in Table 4, was also studied.
For solution studies, doubly deionized and ultra-filtered water was obtained from a Milli-Q RG (Millipore) water purification system. pH-potentiometric measurements were carried out at a constant ionic strength of 0.20 M KCl and at 25.0°C. Carbonate-free KOH solutions of known concentrations (ca. 0.2 M) were used as titrant. […]. A Mettler Toledo DL50 titrator equipped with a DG114-SC combined glass electrode was used for the pH-potentiometric measurements. […] The titrations were performed in the pH range of 2.0–11.0 in equilibrium-controlled mode, during which the pH equilibrium was assumed to be reached if a change in the measured potential was less than 0.1 mV within 90 s. […]

[4] = pH-potentiometric titration, stability constants (logβ) of ML complexes; format: physicochemical; conditions: [(η^5-Cp*)Rh]^2+; 0.20 M KCl, 25.0°C
From the text: […]. […] Comparing the two metal ion containing systems, the complexation with [(η^6-p-cym)Ru]^2+, starts at a more acidic pH, but hydrolytic processes occur already in the physiological pH range due to the higher affinity of the metal ion to hydrolysis. For the [(η^5-Cp*)Rh]^2+, these processes are shifted towards higher pH; […].
For solution studies, doubly deionized and ultra-filtered water was obtained from a Milli-Q RG (Millipore) water purification system. pH-potentiometric measurements were carried out at a constant ionic strength of 0.20 M KCl and at 25.0°C. Carbonate-free KOH solutions of known concentrations (ca. 0.2 M) were used as titrant. […]. A Mettler Toledo DL50 titrator equipped with a DG114-SC combined glass electrode was used for the pH-potentiometric measurements. […] The titrations were performed in the pH range of 2.0–11.0 in equilibrium-controlled mode, during which the pH equilibrium was assumed to be reached if a change in the measured potential was less than 0.1 mV within 90 s. […] The protonation constants of the ligands and the overall stability constants of the complexes, βp,q,r = [MpHqLr]/[M]^p[H]^q[L]^r (where “M” stands for [(η^5-Cp*)Rh(H2O)3]^2+ and “L” represents the completely deprotonated form of the ligand), were calculated with the aid of the SUPERQUAD ([Gans et al., 1985]) and PSEQUAD ([Zékány and Nagypál, 1985]) computer programs, respectively. […]

[5] = test system: cisplatin-resistant A2780 cells; conditions: ref Kacsir et al., 2023a; cited from earlier work

pK a [3]	logβ [ML] [4]	SMILES	A2780 MTT max % [1]	A2780 SRB max % [2]	IC50 [5]
		CC(=O)OC[C@H]1O[C@H](n2cc(-c3ccccn3)nn2)[C@H](OC(C)=O)[C@@H](OC(C)=O)[C@@H]1OC(C)=O [Complex 2a, 1-(2’,3’,4’,6’-Tetra-O-acetyl-α-D-glucopyranosyl)-4-(pyridin-2-yl)-1,2,3-triazole]	0%	0%	
		CC(=O)OC[C@H]1O[C@H](n2cc(-c3ccc4ccccc4n3)nn2)[C@H](OC(C)=O)[C@@H](OC(C)=O)[C@@H]1OC(C)=O [Complex 2b, 1-(2’,3’,4’,6’-Tetra-O-acetyl-α-D-glucopyranosyl)-4-(quinolin-2-yl)-1,2,3-triazole]	0%	22.33%	
3.56 (1)	5.55 (3)	OC[C@H]1O[C@H](n2cc(-c3ccc4ccccc4n3)nn2)[C@H](O)[C@@H](O)[C@@H]1O [Complex 3b, 1-(α-D-Glucopyranosyl)-4-(quinolin-2-yl)-1,2,3-triazole]			
		N.N.[Cl][Pt][Cl] [cisplatin]			16.5 µM
